Reference: article PMC5216056 (Nature Communications, 2017)
Values joined by “and” are separate entries in the source; they are usually repeats but may differ in a detail not shown here. Equal entries are not always repeated. “Also recorded” adds a separate entry of the source. Where two headings read alike, the source gives them in different places.

Columns and labels:
mCB2R = mCB2R (Mus musculus, UniProt P47936); test: PathHunter β-arrestin recruitment assay; format: cell-based; settings: for Emax ± SEM β-AR recruitment mCB2R: normalized to 10 µM CP55940; for Emax: read-out: Emax ± SEM β-AR recruitment mCB2R
mCB2R, sequence (P47936 whole entry): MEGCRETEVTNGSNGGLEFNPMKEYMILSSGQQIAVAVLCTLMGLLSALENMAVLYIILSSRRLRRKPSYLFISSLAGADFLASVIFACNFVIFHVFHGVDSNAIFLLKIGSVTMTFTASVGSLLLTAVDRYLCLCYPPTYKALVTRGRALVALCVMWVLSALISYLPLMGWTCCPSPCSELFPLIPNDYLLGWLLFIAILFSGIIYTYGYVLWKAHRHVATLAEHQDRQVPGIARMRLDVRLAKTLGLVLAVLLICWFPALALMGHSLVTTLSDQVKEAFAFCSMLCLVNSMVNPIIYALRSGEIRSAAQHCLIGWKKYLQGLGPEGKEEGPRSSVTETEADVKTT

C57BL6/J mice = test: Triad assay: hypothermia; format: in vivo, mouse; settings: for hypothermia, cannabimimetic effect: 1-100 mg kg^−1 i.p., cumulative, mice
A2A (h) = molecular target: T1, A2A (h) (Homo sapiens, UniProt P29274); test: CEREP panel; format: binding; settings: for % inhibition A2A (h): 10 µM
T1 construct: CEREP
T1 sequence (P29274 whole entry): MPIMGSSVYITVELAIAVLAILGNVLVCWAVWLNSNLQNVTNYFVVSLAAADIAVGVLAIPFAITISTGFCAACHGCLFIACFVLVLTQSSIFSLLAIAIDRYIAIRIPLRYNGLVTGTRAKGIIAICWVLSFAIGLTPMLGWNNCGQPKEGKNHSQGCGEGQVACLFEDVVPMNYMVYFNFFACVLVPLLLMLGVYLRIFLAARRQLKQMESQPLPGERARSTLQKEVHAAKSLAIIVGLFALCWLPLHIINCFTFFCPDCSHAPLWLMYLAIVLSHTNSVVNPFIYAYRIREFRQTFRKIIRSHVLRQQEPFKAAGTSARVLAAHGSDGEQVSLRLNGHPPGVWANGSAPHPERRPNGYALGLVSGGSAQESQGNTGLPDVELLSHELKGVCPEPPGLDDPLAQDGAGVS

A3 (h) = molecular target: T2, A3 (h) (Homo sapiens, UniProt P0DMS8); test: CEREP panel; format: binding; settings: for inhibition at 10 µM: read-out: % inhibition A3 (h)
T2 construct: CEREP
T2 sequence (P0DMS8 1-318): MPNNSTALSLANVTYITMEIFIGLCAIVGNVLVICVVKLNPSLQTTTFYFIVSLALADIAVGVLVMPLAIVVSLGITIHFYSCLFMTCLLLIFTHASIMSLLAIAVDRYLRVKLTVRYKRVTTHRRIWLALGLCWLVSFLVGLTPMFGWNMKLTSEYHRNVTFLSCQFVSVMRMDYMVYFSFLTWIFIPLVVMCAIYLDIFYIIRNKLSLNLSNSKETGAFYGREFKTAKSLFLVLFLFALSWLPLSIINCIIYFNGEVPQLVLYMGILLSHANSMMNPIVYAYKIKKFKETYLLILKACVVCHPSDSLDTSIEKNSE

alpha 2A (h) = molecular target: T3, alpha 2A (h) (Homo sapiens, UniProt P08913); test: CEREP panel; format: binding; settings: for inhibition at 10 µM: read-out: % inhibition alpha 2A (h)
T3 construct: CEREP
T3 sequence (P08913 1-465): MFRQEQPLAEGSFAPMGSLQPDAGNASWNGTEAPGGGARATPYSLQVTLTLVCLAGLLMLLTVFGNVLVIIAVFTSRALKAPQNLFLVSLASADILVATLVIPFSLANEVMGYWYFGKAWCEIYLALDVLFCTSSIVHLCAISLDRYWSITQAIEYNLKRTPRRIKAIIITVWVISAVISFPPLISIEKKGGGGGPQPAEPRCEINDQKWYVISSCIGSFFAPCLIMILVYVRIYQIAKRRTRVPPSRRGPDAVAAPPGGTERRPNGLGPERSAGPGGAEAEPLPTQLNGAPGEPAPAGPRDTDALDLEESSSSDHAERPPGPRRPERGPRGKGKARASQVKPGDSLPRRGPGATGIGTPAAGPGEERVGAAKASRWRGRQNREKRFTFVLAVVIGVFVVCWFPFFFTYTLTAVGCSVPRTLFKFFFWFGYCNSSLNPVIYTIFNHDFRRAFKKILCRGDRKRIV

B2 (h) = molecular target: T4, B2 (h) (Homo sapiens, UniProt P30411); test: CEREP panel; format: binding; settings: for % inhibition B2 (h): 10 µM
T4 construct: CEREP
T4 sequence (P30411 1-391): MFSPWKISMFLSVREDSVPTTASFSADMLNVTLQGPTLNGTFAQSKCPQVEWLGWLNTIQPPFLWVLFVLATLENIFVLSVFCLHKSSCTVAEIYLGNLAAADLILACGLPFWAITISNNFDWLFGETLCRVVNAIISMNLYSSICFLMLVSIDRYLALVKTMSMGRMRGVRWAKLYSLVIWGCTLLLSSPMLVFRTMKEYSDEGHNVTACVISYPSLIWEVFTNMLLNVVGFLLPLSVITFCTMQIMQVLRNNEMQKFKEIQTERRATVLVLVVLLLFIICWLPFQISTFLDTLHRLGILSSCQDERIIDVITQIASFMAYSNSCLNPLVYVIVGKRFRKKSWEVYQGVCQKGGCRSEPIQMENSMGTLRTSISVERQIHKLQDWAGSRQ

BB = test: CEREP panel; format: binding; settings: 10 µM
[1] = test system: Ca2+ channel (verapamil site); test: CEREP panel; format: binding; settings: 10 µM
MC4 (h) = molecular target: T5, MC4 (h) (Homo sapiens, UniProt P32245); test: CEREP panel; format: binding; settings: for % inhibition MC4 (h): 10 µM
T5 construct: CEREP (contract assay)
T5 sequence (P32245 whole entry): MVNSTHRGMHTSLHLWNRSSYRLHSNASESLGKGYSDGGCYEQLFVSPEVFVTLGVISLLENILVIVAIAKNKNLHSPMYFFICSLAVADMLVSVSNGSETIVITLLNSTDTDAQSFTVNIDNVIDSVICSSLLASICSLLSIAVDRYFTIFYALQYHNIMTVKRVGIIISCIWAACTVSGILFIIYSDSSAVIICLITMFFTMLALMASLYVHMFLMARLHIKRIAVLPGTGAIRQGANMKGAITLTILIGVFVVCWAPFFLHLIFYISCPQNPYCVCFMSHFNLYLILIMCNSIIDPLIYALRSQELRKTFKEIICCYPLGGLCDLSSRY

NK2 (h) = molecular target: T6, NK2 (h) (Homo sapiens, UniProt P21452); test: CEREP panel; format: binding; settings: for % inhibition NK2 (h): 10 µM
T6 construct: CEREP (contract assay)
T6 sequence (P21452 1-398): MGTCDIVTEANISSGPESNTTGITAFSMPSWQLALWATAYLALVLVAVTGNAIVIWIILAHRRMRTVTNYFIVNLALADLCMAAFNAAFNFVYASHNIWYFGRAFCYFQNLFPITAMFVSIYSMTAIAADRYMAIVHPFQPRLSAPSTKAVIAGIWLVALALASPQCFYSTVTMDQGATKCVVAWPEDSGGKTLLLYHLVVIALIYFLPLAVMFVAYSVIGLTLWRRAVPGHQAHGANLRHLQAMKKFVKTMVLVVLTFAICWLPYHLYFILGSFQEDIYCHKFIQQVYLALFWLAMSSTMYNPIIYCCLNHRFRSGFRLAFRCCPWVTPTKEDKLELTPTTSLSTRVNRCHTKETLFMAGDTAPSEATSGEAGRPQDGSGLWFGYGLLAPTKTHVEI

NK3 (h) = molecular target: T7, NK3 (h) (Homo sapiens, UniProt P29371); test: CEREP panel; format: binding; settings: for % inhibition NK3 (h): 10 µM
T7 construct: CEREP (contract assay)
T7 sequence (P29371 1-465): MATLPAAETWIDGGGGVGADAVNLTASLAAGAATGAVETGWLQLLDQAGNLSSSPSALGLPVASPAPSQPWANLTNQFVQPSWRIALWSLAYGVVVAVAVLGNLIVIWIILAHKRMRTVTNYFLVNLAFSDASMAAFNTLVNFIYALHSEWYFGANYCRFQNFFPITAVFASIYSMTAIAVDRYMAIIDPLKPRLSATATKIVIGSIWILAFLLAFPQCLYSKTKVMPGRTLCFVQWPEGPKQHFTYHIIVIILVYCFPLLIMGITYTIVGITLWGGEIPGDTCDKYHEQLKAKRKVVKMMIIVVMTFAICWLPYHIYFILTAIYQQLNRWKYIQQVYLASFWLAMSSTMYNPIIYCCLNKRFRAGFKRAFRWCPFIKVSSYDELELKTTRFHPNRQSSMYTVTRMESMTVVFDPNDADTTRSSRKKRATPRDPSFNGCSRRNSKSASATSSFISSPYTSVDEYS

PDGF = test: CEREP panel; format: binding; settings: 10 µM
mouse P-gp = mouse P-gp (Mus musculus, UniProt P21447); settings: efflux ratio
mouse P-gp, sequence (P21447 whole entry): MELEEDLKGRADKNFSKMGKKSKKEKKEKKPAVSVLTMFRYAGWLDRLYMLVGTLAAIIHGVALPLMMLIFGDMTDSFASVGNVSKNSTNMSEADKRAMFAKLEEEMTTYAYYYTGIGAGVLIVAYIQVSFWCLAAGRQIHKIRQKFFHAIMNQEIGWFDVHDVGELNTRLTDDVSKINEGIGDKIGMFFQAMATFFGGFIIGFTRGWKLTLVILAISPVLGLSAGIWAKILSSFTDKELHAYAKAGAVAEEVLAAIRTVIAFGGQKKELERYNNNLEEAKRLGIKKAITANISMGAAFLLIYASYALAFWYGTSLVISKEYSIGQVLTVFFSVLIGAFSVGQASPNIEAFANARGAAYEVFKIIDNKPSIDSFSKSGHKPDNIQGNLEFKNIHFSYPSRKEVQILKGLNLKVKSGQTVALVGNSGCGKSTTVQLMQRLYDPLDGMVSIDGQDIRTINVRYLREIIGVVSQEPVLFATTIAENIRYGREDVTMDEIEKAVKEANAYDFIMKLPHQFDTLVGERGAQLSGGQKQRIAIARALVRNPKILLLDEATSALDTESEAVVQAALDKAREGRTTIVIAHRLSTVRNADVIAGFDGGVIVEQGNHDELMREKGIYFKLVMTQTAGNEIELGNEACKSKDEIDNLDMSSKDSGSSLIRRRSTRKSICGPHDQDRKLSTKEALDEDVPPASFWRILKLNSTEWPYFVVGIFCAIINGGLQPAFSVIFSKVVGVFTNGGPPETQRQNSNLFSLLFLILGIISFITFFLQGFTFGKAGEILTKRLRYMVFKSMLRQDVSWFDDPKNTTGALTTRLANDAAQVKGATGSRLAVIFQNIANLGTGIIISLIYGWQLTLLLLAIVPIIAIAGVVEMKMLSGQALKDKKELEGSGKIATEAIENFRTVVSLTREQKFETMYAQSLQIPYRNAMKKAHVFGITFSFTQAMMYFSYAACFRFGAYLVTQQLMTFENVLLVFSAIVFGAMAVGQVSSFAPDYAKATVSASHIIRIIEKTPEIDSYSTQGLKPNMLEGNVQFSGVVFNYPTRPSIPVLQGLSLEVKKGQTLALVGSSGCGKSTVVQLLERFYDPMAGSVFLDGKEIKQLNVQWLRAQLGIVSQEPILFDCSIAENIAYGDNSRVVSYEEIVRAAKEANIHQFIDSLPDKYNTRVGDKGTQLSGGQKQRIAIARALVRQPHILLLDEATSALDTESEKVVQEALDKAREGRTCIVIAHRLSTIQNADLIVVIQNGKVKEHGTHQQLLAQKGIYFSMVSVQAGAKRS

physchem = settings: pH 6.5, aqueous buffer, thermodynamic from solid
in vitro = settings: male, C57BL/6J, mouse, microsomes, pH 7.4
FP (h) = molecular target: T8, FP (h) (Homo sapiens, UniProt P43088); test: CEREP panel; format: binding; settings: for % inhibition FP (h): 10 µM
T8 construct: CEREP (contract assay)
T8 sequence (P43088 whole entry): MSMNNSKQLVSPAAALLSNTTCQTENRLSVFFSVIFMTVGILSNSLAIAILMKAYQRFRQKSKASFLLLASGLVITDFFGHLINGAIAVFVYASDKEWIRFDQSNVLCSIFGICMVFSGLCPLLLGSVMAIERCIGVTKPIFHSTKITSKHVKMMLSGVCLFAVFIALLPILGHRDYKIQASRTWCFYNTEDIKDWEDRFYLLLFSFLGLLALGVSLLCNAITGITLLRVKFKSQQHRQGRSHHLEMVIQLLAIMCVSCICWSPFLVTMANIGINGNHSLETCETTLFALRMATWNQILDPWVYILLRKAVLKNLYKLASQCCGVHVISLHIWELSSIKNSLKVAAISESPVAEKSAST

D1 (h) = molecular target: T9, D1 (h) (Homo sapiens, UniProt P21728); test: CEREP panel; format: binding; settings: for % inhibition D1 (h): 10 µM
T9 construct: CEREP (contract assay)
T9 sequence (P21728 whole entry): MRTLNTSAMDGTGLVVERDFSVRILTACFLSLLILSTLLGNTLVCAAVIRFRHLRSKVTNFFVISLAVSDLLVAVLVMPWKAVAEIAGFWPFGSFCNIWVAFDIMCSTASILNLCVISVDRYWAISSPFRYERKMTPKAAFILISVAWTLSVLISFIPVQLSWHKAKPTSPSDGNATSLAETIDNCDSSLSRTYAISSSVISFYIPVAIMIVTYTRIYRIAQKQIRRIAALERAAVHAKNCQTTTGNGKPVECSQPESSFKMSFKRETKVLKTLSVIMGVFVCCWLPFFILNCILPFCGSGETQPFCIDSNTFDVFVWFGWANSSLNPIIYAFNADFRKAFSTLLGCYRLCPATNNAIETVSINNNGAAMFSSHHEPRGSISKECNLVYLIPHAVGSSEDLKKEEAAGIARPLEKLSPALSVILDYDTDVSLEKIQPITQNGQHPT

CCCC(C)(C)c1ccc2c(c1)OC(C)(C)[C@@H]1CC=C(C)C[C@@H]21 [JWH133]
pEC50 ± SEM β-AR recruitment mCB2R (mCB2R): 6.80 ± 0.17
Emax ± SEM β-AR recruitment mCB2R (mCB2R): 63 ± 7%
hypothermia, cannabimimetic effect (C57BL6/J mice): did not produce detectable; also recorded: lacked appreciable pharmacological effects
% inhibition A2A (h) (A2A (h)): 4%
% inhibition A3 (h) (A3 (h); 10 µM): -26%
% inhibition alpha 2A (h) (alpha 2A (h); 10 µM): -18%
% inhibition B2 (h) (B2 (h)): -2%
% inhibition BB (BB): 0%
% inhibition Ca2+ channel (verapamil site) [1]: 1%
% inhibition MC4 (h) (MC4 (h)): -10%
% inhibition NK2 (h) (NK2 (h)): 36%
% inhibition NK3 (h) (NK3 (h)): -1%
% inhibition PDGF (PDGF): -12%
P-gp (ER) mouse (mouse P-gp): 1.7

CCCCC/C=C\C/C=C\C/C=C\C/C=C\CCCC(=O)NCCO [Anandamide, N-arachidonoylethanolamine]
solubility kinetic (physchem): < 1.1 µg/mL and < 3.2 µM
microsomal CLint (in vitro): 222 µL/min/mg

CCCn1c(C)c(C(=O)c2cccc3ccccc23)c2ccccc21 [JWH015]
% inhibition A3 (h) (A3 (h); 10 µM): 93%
% inhibition alpha 2A (h) (alpha 2A (h); 10 µM): 1%
P-gp (ER) mouse (mouse P-gp): 1.5

COc1ccc(C(=O)c2c(C)n(CCN3CCOCC3)c3cc(I)ccc23)cc1 [AM630]
% inhibition A3 (h) (A3 (h); 10 µM): 76%
% inhibition alpha 2A (h) (alpha 2A (h); 10 µM): -5%
% inhibition FP (h) (FP (h)): 66%
P-gp (ER) mouse (mouse P-gp): 1.3

CCCCCCC(C)(C)c1ccc([C@@H]2C[C@H](O)CC[C@H]2CCCO)c(O)c1 [CP55940]
EC50 (mCB2R): 9.55 nM
Emax (mCB2R): 96 ± 1%
inhibition at 10 µM (A3 (h); 10 µM): 98%
inhibition at 10 µM (alpha 2A (h); 10 µM): 23%
inhibition at 10 µM (D1 (h)): 77%
inhibition at 10 µM (FP (h)): 100%
microsomal CLint (in vitro): 172 µL/min/mg

CN1CCCC[C@H]1Cn1cc(C(=O)c2cc([N+](=O)[O-])ccc2I)c2ccccc21 [(S)-AM1241]
% inhibition A3 (h) (A3 (h); 10 µM): 42%
% inhibition alpha 2A (h) (alpha 2A (h); 10 µM): 10%
P-gp (ER) mouse (mouse P-gp): 1.4

CCCCC/C=C\C/C=C\C/C=C\C/C=C\CCCC(=O)OC(CO)CO [2-AG, 2-arachidonoyl glycerol]
solubility kinetic (physchem): < 0.5 µg/mL and < 1.3 µM
microsomal CLint (in vitro): 12 µL/min/mg

Cc1c(C(=O)c2cccc3ccccc23)c2cccc3c2n1[C@H](CN1CCOCC1)CO3 [WIN55212-2]
% inhibition A3 (h) (A3 (h); 10 µM): 84%
% inhibition alpha 2A (h) (alpha 2A (h); 10 µM): 0%
% inhibition FP (h) (FP (h)): 81%

SR144528
% inhibition A3 (h) (A3 (h); 10 µM): 72%
% inhibition alpha 2A (h) (alpha 2A (h); 10 µM): -5%

Cc1ccc2c(c1)Cc1c(C(=O)NN3CCCCC3)nn(-c3ccc(Cl)cc3Cl)c1-2 [Gp-1a]
% inhibition A3 (h) (A3 (h); 10 µM): 95%
% inhibition alpha 2A (h) (alpha 2A (h); 10 µM): 30%
% inhibition D1 (h) (D1 (h)): 63%
% inhibition FP (h) (FP (h)): 88%
P-gp (ER) mouse (mouse P-gp): 1.1

CCCCCCC(C)(C)c1cc(OC)c(C2=C[C@H]3CC[C@]2(CO)C3(C)C)c(OC)c1 [HU910]
pEC50 ± SEM β-AR recruitment mCB2R (mCB2R): 6.78 ± 0.16
Emax ± SEM β-AR recruitment mCB2R (mCB2R): 66 ± 1%
hypothermia, cannabimimetic effect (C57BL6/J mice): did not produce detectable; also recorded: lacked appreciable pharmacological effects
antagonism of HU210-induced hypothermia (C57BL6/J mice; pretreatment (SR141716A 3 mg kg^−1, HU910 30 mg kg^−1) before HU210 1.7 mg kg^−1): did not significantly reduce
% inhibition A2A (h) (A2A (h)): 50%
% inhibition A3 (h) (A3 (h); 10 µM): 62%
% inhibition alpha 2A (h) (alpha 2A (h); 10 µM): 7%
% inhibition B2 (h) (B2 (h)): -39%
% inhibition BB (BB): 18%
% inhibition Ca2+ channel (verapamil site) [1]: 7%
% inhibition MC4 (h) (MC4 (h)): 13%
% inhibition NK2 (h) (NK2 (h)): 31%
% inhibition NK3 (h) (NK3 (h)): 24%
% inhibition PDGF (PDGF): 10%
P-gp (ER) mouse (mouse P-gp): 3.0

Cc1c(C(=O)NN2CCCCC2)nn(-c2ccc(Cl)cc2Cl)c1-c1ccc(I)cc1 [AM251]
% inhibition A3 (h) (A3 (h); 10 µM): 93%
% inhibition alpha 2A (h) (alpha 2A (h); 10 µM): 30%
% inhibition D1 (h) (D1 (h)): 58%
% inhibition FP (h) (FP (h)): 94%

CCCCCCC(C)(C)c1cc(OC)c([C@@H]2C=C(CO)[C@@H]3C[C@H]2C3(C)C)c(OC)c1 [HU308]
EC50 (mCB2R): 339 nM
Emax (mCB2R): 69 ± 3%
hypothermia, cannabimimetic effect (C57BL6/J mice): did not produce detectable; also recorded: lacked appreciable pharmacological effects
inhibition at 10 µM (A2A (h); read-out: % inhibition A2A (h)): 25%
inhibition at 10 µM (A3 (h)): -1%
inhibition at 10 µM (alpha 2A (h)): -6%
inhibition at 10 µM (B2 (h); read-out: % inhibition B2 (h)): -21%
% inhibition BB (BB): 3%
% inhibition Ca2+ channel (verapamil site) [1]: 3%
inhibition at 10 µM (MC4 (h); read-out: % inhibition MC4 (h)): 1%
inhibition at 10 µM (NK2 (h); read-out: % inhibition NK2 (h)): 68%
inhibition at 10 µM (NK3 (h); read-out: % inhibition NK3 (h)): 13%
% inhibition PDGF (PDGF): -28%
solubility kinetic (physchem): < 0.75 µg/mL and < 1.8 µM

Cc1c(C(=O)NN2CCCCC2)nn(-c2ccc(Cl)cc2Cl)c1-c1ccc(Cl)cc1 [SR141716A]
antagonism of HU210-induced hypothermia (C57BL6/J mice; mouse, in vivo): attenuated; also recorded: significantly antagonized
solubility kinetic (physchem): < 0.733 µg/mL and < 1.6 µM
microsomal CLint (in vitro): 109 µL/min/mg
